These results are taken from article PMC9000336, “Development of Bicyclo[3.1.0]hexane-Based A3 Receptor Ligands: Closing the Gaps in the Structure–Affinity Relationships” (Molecules, 2022).

Read-outs that look alike come from different tables or passages of the source.

Experiment [1] concerns the target T1, human adenosine A2A receptor (Homo sapiens, UniProt P29274).
T1 construct: expressed in transfected cells; host or cells: HEK293 cells (HEK293hA2AR), from Dr. J. Wang (Biogen/IDEC); membrane preparation
Description: Radioligand displacement assay, human adenosine A2A receptor ([3H]ZM241385, HEK293hA2AR membranes). In kind it is binding. Conditions: for A2A displacement at 10 µM: test compound 10 µM; for A2A displacement at 10 µM / Ki: n = 3. On the procedure:
Human embryonic kidney 293 cells stably expressing the human adenosine A2A receptor (HEK293hA2AR) were kindly provided by Dr. J. Wang (Biogen/IDEC, Cambridge, MA, USA), CHO-spap cells stably expressing the wild-type (WT) hA2B receptor (CHO-spap-hA2BR) were kindly provided by S. J. Dowell (GlaxoSmithKline, Brentfort, UK).
(§1) All cells were grown to 80–90% confluency and detached from plates by scraping them into 5 mL phosphate-buffered saline. Detached cells were collected and centrifuged at 200 g for 5 min. Pellets derived from 100 15 cm Ø plates were pooled and resuspended in 70 mL of ice-cold 50 mM tris(hydroxymethyl)aminomethane (Tris)-HCl buffer, pH 7.4. A Heidolph Diax 900 homogenizer was used to homogenize the cell suspension. Membranes and the cytosolic fraction were separated by centrifugation at 100,000 g in a Beckman Optima LE-80 K ultracentrifuge (Beckman Coulter, Fullerton, CA, USA) at 4 °C for 20 min. The pellet was resuspended in 35 mL of the Tris-HCl buffer, and the homogenization and centrifugation steps were repeated. Tris-HCl buffer (25 mL) was used to resuspend the pellet, and adenosine deaminase (ADA) was added (0.8 U/mL) to break down endogenous adenosine. Membranes were stored in 250 µL and 500 µL aliquots at −80 °C. Total protein concentrations were measured using the bicinchoninic acid (BCA) method.
Nonspecific binding was determined in the presence of 100 µM adenosine-5-N-ethyluronamide (NECA). Incubations were terminated by rapid vacuum filtration to separate the bound and free radioligand through prewetted 96-well GF/B filter plates using a PerkinElmer Filtermate-harvester (Perkin Elmer, Groningen, The Netherlands). Filters were subsequently washed 12 times with ice-cold 50 mM Tris-HCl, pH 7.4.
(§2) The plates of all four adenosine receptor assays were dried at 55 °C after which MicroscintTM-20-cocktail was added (Perkin Elmer, Groningen, The Netherlands).
(§3) All experimental data were analyzed using the non-linear regression curve fitting program GraphPad Prism 7.0 (GraphPad Software Inc., San Diego, CA, USA). IC50 values obtained from competition displacement binding data were converted into Ki values using the Cheng–Prusoff equation.

The target of experiment [2] is T2, human adenosine A1 receptor (Homo sapiens, UniProt P30542).
T2 construct: expressed in transfected cells; host or cells: CHO cells (CHOhA1R), gift of Prof; S. J. Hill; membrane preparation
T2 sequence (P30542 1-326): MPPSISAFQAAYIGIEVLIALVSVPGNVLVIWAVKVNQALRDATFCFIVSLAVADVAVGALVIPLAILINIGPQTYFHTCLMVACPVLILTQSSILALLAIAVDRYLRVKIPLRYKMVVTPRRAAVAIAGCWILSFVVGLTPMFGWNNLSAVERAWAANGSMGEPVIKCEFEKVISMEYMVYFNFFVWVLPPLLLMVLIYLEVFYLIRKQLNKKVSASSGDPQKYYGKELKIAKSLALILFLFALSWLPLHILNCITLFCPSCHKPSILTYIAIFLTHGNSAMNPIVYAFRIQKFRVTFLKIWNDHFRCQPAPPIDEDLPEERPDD
Description: Radioligand displacement assay, human adenosine A1 receptor ([3H]DPCPX, CHOhA1R membranes). The format is binding. Conditions: for inhibition at 10 µM: test compound 10 µM; for inhibition at 10 µM / Ki / A1 displacement at 1 µM: n = 3; for A1 displacement at 1 µM: footnote a: test compound 1 µM. On the procedure: as §1, with “Chinese hamster ovary (CHO) cells stably expressing the human adenosine A1 receptor (CHOhA1R) were kindly provided by Prof. S. J. Hill and CHO cells stably expressing the human adenosine A3 receptor (CHOhA3R) were a gift from Dr. K.-N. Klotz (University of Würzburg, Germany). Chinese hamster ovary cells stably expressing the human A1-receptor (CHOhA1R) or the human A3-receptor (CHOhA3R) were grown in Dulbecco’s Modified Eagle’s Medium (DMEM) and Ham’s F12 medium (1:1) supplemented with 10% (v/v) newborn calf serum, 50 µg/mL streptomycin, 50 IU/mL penicillin, and 200 µg/mL G418 at 37 °C and 5% CO2. […] All” for “All”
A1 Receptor: Membrane aliquots containing 5 µg (CHOhA1R) protein were incubated in a total volume of 100 µL assay buffer (50 mM Tris-HCl, pH 7.4) at 25 °C for 1 h. […] Nonspecific binding was determined in the presence of 100 µM N^6-cyclopentyladenosine (CPA). Incubations were terminated by rapid vacuum filtration to separate the bound and free radioligand through prewetted 96-well GF/B filter plates using a PerkinElmer Filtermate-harvester (Perkin Elmer, Groningen, the Netherlands). Filters were subsequently washed 12 times with ice-cold 50 mM Tris-HCl, pH 7.4.
as §2, §3
For orientation: In a radioligand displacement assay an active substance lowers the binding of a labelled ligand.

Setting [3] is: [3H]ZM241385, read-out: A2A Ki ± SEM.
[4] abbreviates: [3H]DPCPX, read-out: A1 Ki ± SEM.
[5] abbreviates: footnote a: tested at 1 µM, read-out: A2A Ki (bound, footnote a).
Where [6] appears, read: footnote a: tested at 1 µM, read-out: A1 Ki (bound, footnote a).

T1 sequence (P29274 whole entry): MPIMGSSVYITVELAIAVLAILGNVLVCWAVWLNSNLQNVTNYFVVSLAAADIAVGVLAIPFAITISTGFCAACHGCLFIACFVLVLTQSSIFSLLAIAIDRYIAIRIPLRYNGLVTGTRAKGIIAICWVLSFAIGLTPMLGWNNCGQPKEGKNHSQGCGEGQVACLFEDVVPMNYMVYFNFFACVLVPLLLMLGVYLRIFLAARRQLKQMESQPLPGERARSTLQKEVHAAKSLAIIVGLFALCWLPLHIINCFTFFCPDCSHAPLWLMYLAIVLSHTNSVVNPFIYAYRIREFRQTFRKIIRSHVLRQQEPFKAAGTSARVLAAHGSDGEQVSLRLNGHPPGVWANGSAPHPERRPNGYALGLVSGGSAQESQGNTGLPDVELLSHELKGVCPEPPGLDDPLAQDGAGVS

As to `COC(=O)CCc1cn(C[C@@]23C[C@@H]2[C@@H](n2cnc4c(N)nc(SC)nc42)[C@H](O)[C@@H]3O)nn1` [Compound 42, Methyl 3-(1-{[(1R,2R,3S,4R,5S)-4-(6-amino-2-methylthio-9H-purin-9-yl)-2,3-dihydroxybicyclo[3.1.0]hex-1-yl]methyl}-1H-1,2,3-triazol-4-yl)propanoate], the “A2A displacement at 10 µM” value in experiment [1] worked out at 29%. Besides, the inhibition at 10 µM in experiment [2] came out at 19%.
As to `OC[C@@]12C[C@@H]1[C@@H](n1cnc3c(NCc4ccccc4)cc(Cl)nc31)[C@H](O)[C@@H]2O` [Compound 13, (1R,2R,3S,4R,5S)-4-[7-(Benzylamino)-5-chloro-3H-imidazo[4,5-b]pyridin-3-yl]-1-(hydroxymethyl)bicyclo[3.1.0]hexane-2,3-diol], the “A2A displacement at 10 µM” value in experiment [1] worked out at 13%. In addition, testing at 10 µM in experiment [2] gave an inhibition of 25%.
The matching figures for `CSc1cc(NCc2ccccc2)c2ncn([C@H]3[C@H](O)[C@H](O)[C@]4(CO)C[C@H]34)c2n1` [Compound 14, (1R,2R,3S,4R,5S)-4-[7-(Benzylamino)-5-methylthio-3H-imidazo[4,5-b]pyridin-3-yl]-1-(hydroxymethyl)bicyclo[3.1.0]hexane-2,3-diol]: 4% and 20%.
Regarding `Nc1ncnc2c1ncn2[C@H]1[C@H](O)[C@H](O)[C@]2(CO)C[C@H]12` [Compound 36, (N)-methanocarba adenosine], the Ki turned out to be 1810 ± 110 nM in experiment [1] (setting [3]) and 6100 ± 460 nM in experiment [2] (setting [4]). The “fold lower affinity towards A2A receptor than A3” value in experiment [1] (relative to A3 Ki) is on record as 2 fold. For the same compound, the “fold lower affinity towards A1 receptor than A3” value in experiment [2] (relative to A3 Ki) was 6 fold.
Consider `COC(=O)Cc1cn(C[C@@]23C[C@@H]2[C@@H](n2cnc4c(N)nc(SC)nc42)[C@H](O)[C@@H]3O)nn1` [Compound 41, Methyl 2-(1-{[(1R,2R,3S,4R,5S)-4-(6-amino-2-methylthio-9H-purin-9-yl)-2,3-dihydroxybicyclo[3.1.0]hex-1-yl]methyl}-1H-1,2,3-triazol-4-yl)acetate], for which the Ki in experiment [1] (setting [5]) is above 1000 nM. Further, the “A1 displacement at 1 µM” value in experiment [2] is recorded as 2% ^a.
On to `CSc1cc(N)c2ncn([C@H]3[C@H](O)[C@H](O)[C@]4(CO)C[C@H]34)c2n1` [Compound 17, (1R,2R,3S,4R,5S)-4-(7-Amino-5-methylthio-3H-imidazo[4,5-b]pyridin-3-yl)-1-(hydroxymethyl)bicyclo[3.1.0]hexane-2,3-diol], for which the “A2A displacement at 10 µM” value in experiment [1] is on record as 3%. The same compound showed an inhibition at 10 µM in experiment [2] of 23%.
Take `OC[C@@]12C[C@@H]1[C@@H](n1cnc3c(Cl)cc(Cl)nc31)[C@H](O)[C@@H]2O` [Compound 12, (1R,2R,3S,4R,5S)-4-(5,7-Dichloro-3H-imidazo[4,5-b]pyridin-3-yl)-1-(hydroxymethyl)bicyclo[3.1.0]hexane-2,3-diol]: the Ki in experiment [1] (setting [3]) and in experiment [2] (setting [4]) was above 10000 nM each time.
For `Nc1cc(Cl)nc2c1ncn2[C@H]1[C@H](O)[C@H](O)[C@]2(CO)C[C@H]12` [Compound 16, (1R,2R,3S,4R,5S)-4-(7-Amino-5-chloro-3H-imidazo[4,5-b]pyridin-3-yl)-1-(hydroxymethyl)bicyclo[3.1.0]hexane-2,3-diol], in experiment [1], the “A2A displacement at 10 µM” value came to 42%. Further, in experiment [2], the inhibition at 10 µM is 32%.
The matching figures for `CSc1nc(N(Cc2ccccc2)Cc2ccccc2)c2ncn([C@H]3[C@H](O)[C@H](O)[C@]4(CO)C[C@H]34)c2n1` [Compound 30, (1R,2R,3S,4R,5S)-4-[6-(Dibenzylamino)-2-methylthio-9H-purin-9-yl]-1-(hydroxymethyl)bicyclo[3.1.0]hexane-2,3-diol]: 13% and 30%.
On the same counts, the results for `OC[C@@]12C[C@@H]1[C@@H](n1cnc3c(N(Cc4ccccc4)Cc4ccccc4)ncnc31)[C@H](O)[C@@H]2O` [Compound 26, (1R,2R,3S,4R,5S)-4-[6-(Dibenzylamino)-9H-purin-9-yl]-1-(hydroxymethyl)bicyclo[3.1.0]hexane-2,3-diol] are 9% and 25%.
The matching figures for `COC(=O)c1cn(C[C@@]23C[C@@H]2[C@@H](n2cnc4c(N)nc(SC)nc42)[C@H](O)[C@@H]3O)nn1` [Compound 40, Methyl 1-{[(1R,2R,3S,4R,5S)-4-(6-amino-2-methylthio-9H-purin-9-yl)-2,3-dihydroxybicyclo[3.1.0]hex-1-yl]methyl}-1H-1,2,3-triazole-4-carboxylate]: 3% and 7%.
Turning to `CSc1nc(N(Cc2ccccc2)Cc2ccccc2)c2ncn([C@H]3[C@H](O)[C@H](O)[C@]4(CCl)C[C@H]34)c2n1` [Compound 31, (1S,2R,3S,4R,5S)-4-[6-(Dibenzylamino)-2-methylthio-9H-purin-9-yl]-1-(chloromethyl)bicyclo[3.1.0]hexane-2,3-diol], the Ki in experiment [1] (setting [3]) was above 10000 nM. Besides, the inhibition at 10 µM in experiment [2] was 21%.
For the compound `CSc1nc(N)c2ncn([C@H]3[C@H](O)[C@H](O)[C@]4(Cn5cc(C(=O)O)nn5)C[C@H]34)c2n1` [Compound 44, 1-{[(1R,2R,3S,4R,5S)-4-(6-Amino-2-methylthio-9H-purin-9-yl)-2,3-dihydroxybicyclo[3.1.0]hex-1-yl]methyl}-1H-1,2,3-triazole-4-carboxylic acid], the Ki in experiment [1] (setting [5]) and in experiment [2] (setting [6]) was above 1000 nM each time.
For the compound `CCN(CC)CC.CSc1nc(N)c2ncn([C@H]3[C@H](O)[C@H](O)[C@]4(CNc5c(O)c(=O)c5=O)C[C@H]34)c2n1` [Compound 47, Triethylammonium 2-{[(1R,2R,3S,4R,5S)-4-(6-Amino-2-methylthio-9H-purin-9-yl)-2,3-dihydroxybicyclo[3.1.0]hex-1-yl]methyl}amino-3,4-dioxocyclobut-1-en-1-olate], the Ki in experiment [1] (setting [5]) was above 1000 nM. In experiment [2], the “A1 displacement at 1 µM” value was determined as 1% ^a.
For `CSc1nc(N)c2ncn([C@H]3[C@H](O)[C@H](O)[C@]4(Cn5cc(CC(=O)O)nn5)C[C@H]34)c2n1` [Compound 45, 2-(1-{[(1R,2R,3S,4R,5S)-4-(6-Amino-2-methylthio-9H-purin-9-yl)-2,3-dihydroxybicyclo[3.1.0]hex-1-yl]methyl}-1H-1,2,3-triazol-4-yl)acetic acid], the Ki in experiment [1] (setting [5]) and in experiment [2] (setting [6]) was above 1000 nM in each case.

As usually defined, the inhibition is the change of the read-out against control, counted positive when it falls. Higher therefore signals strong suppression. What is called Ki is a dissociation constant, usually derived from enzyme kinetics or from competition with a known ligand.
